Reference: the supplement of paper PMC10307832

What was measured:
Assay in all cases: relative viability (nuclei count vs DMSO), 5 days (fraction); higher = more cells survive
JZL-184 + Trametinib = compound: C1CN(CCC1C(C2=CC3=C(C=C2)OCO3)(C4=CC5=C(C=C4)OCO5)O)C(=O)OC6=CC=C(C=C6)[N+](=O)[O-] [JZL-184] + CC(=O)Nc1cccc(-n2c(=O)n(C3CC3)c(=O)c3c(Nc4ccc(I)cc4F)n(C)c(=O)c(C)c32)c1 [Trametinib] (partner 0.02 µM)
Procedure, shortened: (§1)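 Relative viability was taken as the ratio of nuclei in treated wells to nuclei in vehicle wells. Lung cancer cell lines in 1536-well plates received compounds by pin tool one day after seeding, either one drug alone or a fixed anchor-drug dose plus five library-drug doses (not always all listed) in √10 steps. Nuclei were counted on 4× images after 5 days of treatment, and values are medians of duplicate plates.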

JZL-184 + Crizotinib = compound: C1CN(CCC1C(C2=CC3=C(C=C2)OCO3)(C4=CC5=C(C=C4)OCO5)O)C(=O)OC6=CC=C(C=C6)[N+](=O)[O-] [JZL-184] + C[C@@H](Oc1cc(-c2cnn(C3CCNCC3)c2)cnc1N)c1c(Cl)ccc(F)c1Cl [Crizotinib] (partner 1 µM)
Procedure, shortened: as §1

JZL-184 + Linsitinib = compound: C1CN(CCC1C(C2=CC3=C(C=C2)OCO3)(C4=CC5=C(C=C4)OCO5)O)C(=O)OC6=CC=C(C=C6)[N+](=O)[O-] [JZL-184] + C[C@]1(O)C[C@@H](c2nc(-c3ccc4ccc(-c5ccccc5)nc4c3)c3c(N)nccn32)C1 [Linsitinib] (partner 1 µM)
Procedure, shortened: as §1

JZL-184 + Pemetrexed = compound: C1CN(CCC1C(C2=CC3=C(C=C2)OCO3)(C4=CC5=C(C=C4)OCO5)O)C(=O)OC6=CC=C(C=C6)[N+](=O)[O-] [JZL-184] + Nc1nc2[nH]cc(CCc3ccc(C(=O)N[C@@H](CCC(=O)O)C(=O)O)cc3)c2c(=O)[nH]1 [Pemetrexed] (partner 0.2 µM)
Procedure, shortened: as §1

JZL-184 + Olaparib = compound: C1CN(CCC1C(C2=CC3=C(C=C2)OCO3)(C4=CC5=C(C=C4)OCO5)O)C(=O)OC6=CC=C(C=C6)[N+](=O)[O-] [JZL-184] + O=C(c1cc(Cc2n[nH]c(=O)c3ccccc23)ccc1F)N1CCN(C(=O)C2CC2)CC1 [Olaparib] (partner 8 µM)
Procedure, shortened: as §1

Row | Cell Line | relative viability (JZL-184 + Trametinib; first compound 0.04 µM) | relative viability (JZL-184 + Trametinib; first compound 0.4 µM) | relative viability (JZL-184 + Trametinib; first compound 1.265 µM) | relative viability (JZL-184 + Trametinib; first compound 4 µM) | relative viability (JZL-184 + Crizotinib; first compound 0.04 µM) | relative viability (JZL-184 + Crizotinib; first compound 0.4 µM) | relative viability (JZL-184 + Crizotinib; first compound 1.265 µM) | relative viability (JZL-184 + Crizotinib; first compound 4 µM) | relative viability (JZL-184 + Linsitinib; first compound 0.04 µM) | relative viability (JZL-184 + Linsitinib; first compound 0.4 µM) | relative viability (JZL-184 + Linsitinib; first compound 1.265 µM) | relative viability (JZL-184 + Linsitinib; first compound 4 µM) | relative viability (JZL-184 + Pemetrexed; first compound 0.04 µM) | relative viability (JZL-184 + Pemetrexed; first compound 0.4 µM) | relative viability (JZL-184 + Pemetrexed; first compound 1.265 µM) | relative viability (JZL-184 + Pemetrexed; first compound 4 µM) | relative viability (JZL-184 + Olaparib; first compound 0.04 µM) | relative viability (JZL-184 + Olaparib; first compound 0.4 µM) | relative viability (JZL-184 + Olaparib; first compound 1.265 µM) | relative viability (JZL-184 + Olaparib; first compound 4 µM)
1 | LU99A | 0.574 | 0.469 | 0.607 | 0.638 | 0.657 | 0.529 | 0.622 | 0.63 | 0.582 | 0.511 | 0.529 | 0.442 | 0.162 | 0.12 | 0.159 | 0.124 | 0.256 | 0.277 | 0.254 | 0.225
2 | LXF-289 | 0.789 | 0.604 | 0.668 | 0.668 | 0.813 | 0.819 | 0.765 | 0.75 | 1.05 | 0.94 | 0.971 | 0.924 | 0.882 | 0.779 | 0.862 | 0.875 | 1.16 | 1.06 | 1.01 | 0.975
3 | NCI-H23 | 0.409 |  | 0.358 | 0.392 | 0.611 | 0.444 | 0.521 | 0.43 | 0.552 | 0.56 | 0.651 | 0.728 | 0.772 |  | 0.704 | 0.597 | 0.388 |  | 0.303 | 0.366
4 | NCI-H322M | 0.456 | 0.48 | 0.513 | 0.482 | 0.965 | 0.971 | 0.886 | 0.825 | 0.823 | 0.938 | 0.984 | 0.907 | 0.591 | 0.604 | 0.615 | 0.538 | 0.785 | 0.591 | 0.774 | 0.733
5 | NCI-H358 | 0.146 | 0.133 | 0.148 | 0.15 | 0.748 | 0.438 | 0.595 | 0.49 | 0.889 | 0.738 | 0.848 | 0.708 | 0.195 | 0.162 | 0.181 | 0.163 | 0.804 | 0.637 | 0.599 | 0.592
6 | NCI-H441 | 0.473 | 0.436 | 0.49 | 0.487 | 0.767 | 0.54 | 0.793 | 0.58 | 0.534 | 0.401 | 0.672 | 0.606 | 0.277 | 0.248 | 0.239 | 0.285 | 0.714 | 0.473 | 0.659 | 0.463
7 | NCI-H460 | 0.22 | 0.145 | 0.213 | 0.099 | 0.993 | 0.81 | 0.839 | 0.912 | 1.03 | 0.623 | 0.87 | 0.72 | 0.0624 | 0.0591 | 0.0649 | 0.0648 | 0.337 | 0.427 | 0.458 | 0.394
8 | NCI-H520 | 0.729 | 0.63 | 0.686 | 0.651 | 0.813 | 0.707 | 0.907 | 0.665 | 1.15 | 0.929 | 0.926 | 0.897 | 0.782 | 0.483 | 0.748 | 0.684 | 0.39 | 0.369 | 0.351 | 0.304
9 | NCI-H596 | 0.86 | 0.76 | 0.801 | 0.767 | 1.19 | 0.955 | 1.03 | 1.06 | 1.21 | 0.978 | 1.05 | 1.05 | 0.543 | 0.411 | 0.452 | 0.48 | 0.669 | 0.728 | 0.721 | 0.753
10 | NCI-H647 | 0.455 | 0.41 | 0.562 | 0.504 | 1.36 | 0.956 | 1 | 1.02 | 1.18 | 1.06 | 1.19 | 1.26 | 0.201 | 0.161 | 0.209 | 0.19 | 0.654 | 0.481 | 0.471 | 0.564
11 | NCI-H650 | 1.06 | 0.871 | 0.963 | 0.995 | 0.872 | 0.73 | 0.814 | 0.685 | 0.966 | 0.62 | 0.933 | 0.747 | 0.894 | 0.924 | 1.04 | 1.01 | 0.427 | 0.369 | 0.438 | 0.381
12 | NCI-H661 | 0.606 | 0.531 | 0.548 | 0.586 | 0.933 |  | 0.935 | 0.928 | 0.542 | 0.477 | 0.712 | 0.521 | 0.983 | 0.858 | 0.931 | 0.898 | 0.825 | 0.712 | 0.731 | 0.748
13 | NCI-H838 | 0.65 | 0.569 | 0.543 | 0.477 | 1.05 | 0.885 | 0.941 | 0.76 | 1.23 | 1.05 | 0.98 | 0.98 | 0.254 | 0.236 | 0.241 | 0.256 | 0.994 | 0.737 | 0.766 | 0.722
14 | NCI-H1355 | 0.44 | 0.403 | 0.423 | 0.38 | 1.06 | 1.01 | 1.22 | 0.925 | 0.606 | 0.856 | 0.842 | 0.8 | 1.06 | 0.945 | 1.05 | 1.04 | 0.775 | 0.708 | 0.78 | 0.707
15 | NCI-H1437 | 0.495 | 0.482 | 0.479 | 0.445 | 0.938 | 0.889 | 0.888 | 0.841 | 1.24 | 1.01 | 1.07 | 0.958 | 0.306 | 0.322 | 0.309 | 0.312 | 0.665 | 0.61 | 0.632 | 0.636
